In patent publication US20240199571A1, “THIOPHENE COMPOUND AND APPLICATION THEREOF” (MEDSHINE DISCOVERY INC., priority 2021, published 2024):
Structures can show the parent of a compound that is named as a salt.

Tests used:
NCI-H1417 cells = experiment: Experiment 2: inhibition of NCI-H1417 cell proliferation (CellTiter-Glo, 10 days); format: cell-based; details: Homo sapiens, 240 h, 10 days incubation
Summary of the method: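 Cells at 1000 per well exposed to 10-point 3-fold dilutions from 10 μM top concentration for 10 days. Viability by CellTiter-Glo luminescence; inhibition normalized to max/min controls, IC50 from four-parameter fit.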

human LSD1 = human LSD1 (Homo sapiens (Human), UniProt O60341); experiment: Experiment 1A: in vitro LSD1 enzyme activity, enzyme-coupled fluorescence (HRP/Amplex Red), H3K4me peptide 20 μM (Wuhan Heyan); format: biochemical; details: histone H3K4me peptide 20 μM
Description: Experiment 1A: Evaluation of Enzyme Activity
Testing unit: Wuhan Heyan Biomedical Technology Co., Ltd.
The purpose of the assay was to test the in vitro inhibitory activity of the compounds against LSD1. The enzyme used in the assay was human LSD1, and the standard substrate was histone H3K4me peptide (20 μM). The activity of the compounds was determined by the enzyme-coupling fluorescent method by the combined detection of H2O2 generated after the reaction of LSD1 by horseradish peroxidase (HRP) and the fluorescent reagent Amplex Red. Starting from 10 μM, the compounds were 3-fold diluted to detect the IC50 values of the compounds at 10 concentrations. The enzyme and substrate were incubated for 30 minutes before the compound was added to the substrate to start the reaction. Fluorescence detector: EnVision, excitation wavelength: Ex/Em=530/590 nM.

[1] = Experiment 3: pharmacokinetic evaluation in CD-1 mice (IV and oral); format: in vivo; details: mouse, plasma, female CD-1 mice
Summary of the method: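 Male/female CD-1 mice aged 7-9 weeks, two per route, received single doses of 1 mg/kg IV or 2 mg/kg oral gavage in 10% DMSO/90% of 10% HP-β-cyclodextrin. Plasma was sampled from 0.083 (IV) or 0.25 (PO) to 24 h. Methanol-precipitated samples were measured by LC-MS/MS to derive Cmax, CL, T1/2, Vdss, AUC0-last and F.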

Compound `COc1ccc(-c2sc(C(=O)N3CC[C@H](N)C3)cc2-c2ccc(C#N)c(F)c2)cc1F` [Hydrochloride of compound 7] has an IC50 (NCI-H1417 cells) of 20.4 nM, an IC50 (human LSD1) of 121 nM and a clearance ([1]; IV 1 mg/kg, read-out: Clearance rate CL) of 20.9 mL/min/kg. For the same compound, the half-life ([1]; IV 1 mg/kg, read-out: Half life T1/2 (IV, h) (converted)) was 3.74 h, the Vd ([1]; IV 1 mg/kg, read-out: Volume of distribution at steady state Vdss) was 6.19 L/kg and the bioavailability ([1]; PO 2 mg/kg vs IV 1 mg/kg, read-out: Bioavailability F (%)) was 52.4%. It also gave an AUC(0-t) ([1]; PO 2 mg/kg, read-out: Area under drug-time curve AUC0-last PO) of 1.89 µM·h and a Cmax ([1]; single dose, oral 2 mg/kg, read-out: Peak concentration Cmax) of 176 nM.
